From paper PMC12123601, “Light-Induced, Lysine-Targeting Irreversible Covalent Inhibition of the Human Oxygen Sensing Hydroxylase Factor Inhibiting HIF (FIH)” (Journal of the American Chemical Society, 2025)

Key:
[1] = test system: 3T3-L1-derived adipocytes; assay: Lipid homeostasis in 3T3-L1-derived adipocytes (TG level, Oil Red O staining); type: cell-based
Description: (§1) 5 NBA-ZG-2991 sustainably engages with FIH and regulates the expression of FIH-dependent HIF target gene EGLN3 in Hep3B cells. (A) The CETSA assay was carried out with Hep3B cells grown in the presence of NBA-ZG-2291 (50 μM) for 12–48 h after 30 min of light activation (365 nm, 16 W). The intensity of the bands for grayscale analysis was referenced to the starting temperature (37 °C). α-Actinin was the sample loading control. n = 2; mean ± SD. […] (E) Correlation heatmap of the NBA-ZG-2291-treated group and the siFIH group by RNA-sequencing analysis. […] The relative fold change with respect to DMSO treated sample is shown (with normalization to HPRT gene levels). Mean ± SEM; n = 3. (G) TG level of NBA-ZG-2291-treated 3T3-L1-derived adipocytes. Mean ± SEM; n = 3. (H) Representative Oil Red O-stained images of the control, ZG-2291-treated, and NBA-ZG-2291-treated 3T3-L1-derived adipocytes. Scale Bar, 30 μm. P values were analyzed by two-way ANOVA comparing with the vehicle/control group (*, P < 0.05; **, P < 0.01; ***, P < 0.001, ****, P < 0.0001). See Methods (Quantitative PCR Analysis of Gene Expression) for assay details. […]

[2] = test system: EGLN3 expression in FIH knockdown Hep3B cells; assay: qRT-PCR of EGLN3 in FIH knockdown (siFIH) Hep3B cells; type: cell-based
Description: as §1

O=C(O)CNC(=O)c1ncc(-c2cc(-c3ccc(CO)c([N+](=O)[O-])c3)no2)cc1O [NBA-ZG-2291]
Cellular triglyceride (TG) levels [1]: significantly improved cellular triglyceride levels
Lipid droplet accumulation (Oil Red O staining) ([1]; compared with control cells): reduced lipid droplet accumulation
Effect on EGLN3 expression when FIH was knocked down [2]: no significant effect on EGLN3 expression
